Values joined by “and” are separate entries in the source; they are usually repeats but may differ in a detail not shown here. Identical values can stand only once. Blank lines part the entries; values can stand above or below the molecule they belong to.
Columns and labels:
[1] = tested on: vetch aphid (Megoura viciae); assay: Test B.1: control of vetch aphid on broad bean leaf disks, contact or systemic; assay type: in vivo; settings: sprayed on leaf disks, 5 days
Description: For evaluating control of vetch aphid (Megoura viciae) through contact or systemic means the test unit consisted of 24-well-microtiter plates containing broad bean leaf disks.
The compounds or mixtures were formulated using a solution containing 75 wt % water and 25 wt % DMSO. Different concentrations of formulated compounds or mixtures were sprayed onto the leaf disks at 2.5 μl, using a custom built micro atomizer, at two replications.
(§1) For experimental mixtures in these tests identical volumes of both mixing partners at the desired concentrations respectively, were mixed together.
After application, the leaf disks were air-dried and 5-8 adult aphids placed on the leaf disks inside the microtiter plate wells. The aphids were then allowed to suck on the treated leaf disks and incubated at 23±1° C., 50±5% RH (relative humidity) for 5 days. Aphid mortality and fecundity was then visually assessed.

[2] = tested on: boll weevil (Anthonomus grandis); assay: Test B.3: control of boll weevil, insect diet with eggs; assay type: in vivo; settings: sprayed on insect diet, 5 days
Description: For evaluating control of boll weevil (Anthonomus grandis) the test unit consisted of 24-well-microtiter plates containing an insect diet and 20-30 A. grandis eggs.
The compounds or mixtures were formulated using a solution containing 75 wt % water and 25 wt % DMSO. Different concentrations of formulated compounds or mixtures were sprayed onto the insect diet at 20 μl, using a custom built micro atomizer, at two replications.
as §1
After application, microtiter plates were incubated at 23±1° C., 50±5% RH for 5 days. Egg and larval mortality was visually assessed.

[3] = tested on: green peach aphid (Myzus persicae); assay: Test B.2: control of green peach aphid through systemic means, artificial diet under membrane; assay type: in vivo; settings: 3 days
Excerpt: For evaluating control of green peach aphid (Myzus persicae) through systemic means the test unit consisted of 96-well-microtiter plates containing liquid artificial diet under an artificial membrane.
The compounds or mixtures were formulated using a solution containing 75 wt % water and 25 wt % DMSO. Different concentrations of formulated compounds or mixtures were pipetted into the aphid diet, using a custom built pipetter, at two replications.
as §1
After application, 5-8 adult aphids were placed on the artificial membrane inside the microtiter plate wells. The aphids were then allowed to suck on the treated aphid diet and incubated at 23±1° C., 50±5% RH for 3 days. Aphid mortality and fecundity was then visually assessed. In all cases, a synergistic control effect according to Colby's equation was observed.

[4] = tested on: Mediterranean fruitfly (Ceratitis capitata); assay: Test B.4: control of Mediterranean fruitfly, insect diet with eggs; assay type: in vivo; settings: 5 days
Description: For evaluating control of Mediterranean fruitfly (Ceratitis capitata) the test unit consisted of 96-well-microtiter plates containing an insect diet and 50-80 C. capitata eggs.
The compounds or mixtures were formulated using a solution containing 75 wt % water and 25 wt % DMSO. Different concentrations of formulated compounds or mixtures were sprayed onto the insect diet at 5 μl, using a custom built micro atomizer, at two replications.
as §1
(§2) After application, microtiter plates were incubated at 28±1° C., 80±5% RH for 5 days. Egg and larval mortality was visually assessed.

[5] = tested on: tobacco budworm (Heliothis virescens); assay: Test B.5: control of tobacco budworm, insect diet with eggs; assay type: in vivo; settings: 5 days
Description: For evaluating control of tobacco budworm (Heliothis virescens) the test unit consisted of 96-well-microtiter plates containing an insect diet and 15-25 H. virescens eggs.
The compounds or mixtures were formulated using a solution containing 75 wt % water and 25 wt % DMSO. Different concentrations of formulated compounds or mixtures were sprayed onto the insect diet at 10 μl, using a custom built micro atomizer, at two replications.
as §1, §2

[6] = 4 ppm in aphid diet, mortality and fecundity
[7] = 100 ppm sprayed onto insect diet
[8] = 10 ppm sprayed onto insect diet
[9] = 0.4 ppm sprayed onto insect diet
[10] = 40 ppm sprayed onto insect diet

melting point: 95 to 96 °C
Molecule: Cc1cc(C)cc(CC(NC2=NCCS2)c2cccc3cccnc23)c1 (stereo not drawn)

melting point: 270 to 272 °C
Molecule: Cc1cc(C)cc(CC(NC2=NCCS2)c2cccc3c2C(C)(C)C(=O)N3C)c1 (stereo not drawn)

melting point: 120 to 124 °C
Molecule: Cc1cc(C)cc(CC(NC2=NCCS2)c2cccc3c2CCC3)c1 (stereo not drawn)

melting point: 139 to 141 °C
Molecule: Cc1cc(C)cc(CC(NC2=NCCS2)c2cccc3c2CCCC3)c1 (stereo not drawn)

Molecule: CC1(C)C(C=C(Cl)Cl)C1C(=O)OC(C#N)c1cccc(Oc2ccccc2)c1 (stereo not drawn) [alphacypermethrin]
Average Control ([1]; 0.08 ppm): 0%
Average Control ([1]; 2 ppm): 50%
Average Control ([2]; 0.04 ppm): 25%

Molecule: Cc1cc(C)cc(CC(N=C2NCCS2)c2cccc3c2OCCO3)c1 (stereo not drawn) [compound C.I-27]
Average Control ([1]; 0.16 ppm): 0%
Average Control [%] ([3]; 0.16 ppm in aphid diet): 0%
Average Control [%] [3, 6]: 0%
Average Control [%] ([3]; 20 ppm in aphid diet): 0%
Average Control ([2]; 0.16 ppm): 0%
Average Control ([2]; 0.8 ppm): 0%
Average Control ([2]; 20 ppm): 0%
Average Control ([2]; 100 ppm): 0%
Average Control [%] ([4]; 0.16 ppm sprayed onto insect diet): 0%
Average Control [%] ([4]; 20 ppm sprayed onto insect diet): 0%
Average Control [%] ([4]; 100 ppm sprayed onto insect diet, egg and larval mortality): 0%
Average Control [%] [5, 7]: 0%

Molecule: Cc1cc(C)cc(CC(N=C2NCCS2)c2cccc3c2OCC3)c1 (stereo not drawn) [compound C.I-47]
Average Control ([1]; 0.16 ppm): 0%
Average Control ([1]; 0.8 ppm): 50%
Average Control [%] ([3]; 0.8 ppm in aphid diet): 0%
Average Control [%] [3, 6]: 25% and 50%
Average Control [%] ([5]; 4 ppm sprayed onto insect diet, egg and larval mortality): 0%

Molecule: CNC(=O)c1cc(C#N)cc(C)c1NC(=O)c1cc(Br)nn1-c1ncccc1Cl [cyazypyr]
Average Control ([1]; 0.4 ppm): 0%
Average Control ([2]; 0.4 ppm): 0%
Average Control [%] [4, 8]: 50%
Average Control [%] [5, 9]: 0%

Molecule: N#Cc1nn(-c2c(Cl)cc(C(F)(F)F)cc2Cl)c(N)c1[S+]([O-])C(F)(F)F (stereo not drawn) [fipronil]
Average Control [%] ([3]; 2 ppm in aphid diet): 50%
Average Control [%] [4, 9]: 25%

Molecule: N#CCNC(=O)c1cnccc1C(F)(F)F [flonicamid]
Average Control ([1]; 0.8 ppm): 0%
Average Control [%] [3, 6]: 0%
Average Control ([2]; 100 ppm): 0%
Average Control [%] [5, 7]: 0%

Molecule: O=[N+]([O-])NC1=NCCN1Cc1ccc(Cl)nc1 [imidacloprid]
Average Control ([1]; 0.016 ppm): 0%
Average Control ([1]; 2 ppm): 50%
Average Control [%] ([3]; 0.4 ppm in aphid diet): 50%

Molecule: CC(C)(C)c1ccc(CSc2cnn(C(C)(C)C)c(=O)c2Cl)cc1 [pyridaben]
Average Control ([2]; 8 ppm): 50%
Average Control [%] [4, 10]: 25%
Average Control [%] [5, 10]: 0%

Molecule: CNC(=O)c1cc(Cl)cc(C)c1NC(=O)c1cc(Br)nn1-c1ncccc1Cl [rynaxypyr]
Average Control ([1]; 0.4 ppm): 0%

Molecule: CCOC(=O)OC1=C(c2cc(C)ccc2C)C(=O)N[C@]12CC[C@@H](OC)CC2 [spirotetramat]
Average Control ([1]; 0.8 ppm): 0%
Average Control [%] [3, 6]: 0%
Average Control [%] ([3]; 20 ppm in aphid diet): 0%

Molecule: CN1COCN(Cc2cnc(Cl)s2)/C1=N\[N+](=O)[O-] [thiamethoxam]
Average Control ([2]; 2 ppm): 25%
Average Control [%] [4, 8]: 25%

Molecule: abamectin
Average Control ([1]; 0.08 ppm): 0%
Average Control [%] ([3]; 0.016 ppm in aphid diet): 0%
Average Control [%] ([3]; 0.08 ppm in aphid diet): 0%
Average Control ([2]; 0.016 ppm): 25%
Average Control [%] ([4]; 0.016 ppm sprayed onto insect diet): 0%
